Values of other authors in paper doi:10.1101/2023.04.08.536135v1 (bioRxiv, 2023).

Tested on: IDE

bradykinin (RPPGFSPFR; Bradykinin; UniProt P01042 381-389, looked up)
rate of degradation by IDE relative to that of insulin: at least 20 fold
